Molecules are shown by their SMILES. Bounds are passed on as bounds.

What all share (assay type): functional
A short description of assay [1]: Cytotoxicity against Homo sapiens (human) CNS cancer cells after 48 hr by SRB assay. The settings on record: Cancer cell lines. For orientation: Sulforhodamine B stains cellular protein and so reports cell mass.
Assay [2] can be described thus: Cytotoxicity against Homo sapiens (human) non-small cell lung cancer cells after 48 hr by SRB assay. The note with it: Cancer cell lines.
A short description of assay [3]: Cytotoxicity against Homo sapiens (human) breast cancer cells after 48 hr by SRB assay. The settings on record: Cancer cell lines; for LC50 (concentration giving 50% net cell kill): pooled result: one value given for 9 cell lines, strains, targets or settings.
For the next assay, the system named is SF-268. Kind of assay: Cytotoxicity against Homo sapiens (human) SF268 cells assessed as cellular growth after 48 hr by Alamar blue assay. Set-up: concentration or dose not given beside the values. For orientation: The colour change of resazurin is a common sign of viable cells or microbes.
Another assay relates to MCF7. The assay is described as follows: Cytotoxicity against Homo sapiens (human) MCF7 cells assessed as cellular growth after 48 hr by Alamar blue assay. Set-up: concentration or dose not given beside the values.
Assay [4] in a line: Cytotoxicity against Homo sapiens (human) leukemia cells after 48 hr by SRB assay. The note with it: Leukemia cell.
The nature of assay [5]: Cytotoxicity against Homo sapiens (human) ovarian cancer cells after 48 hr by SRB assay. The note with it: Cancer cell lines.
The subject of the next assay is NCI-H460. The assay is described as follows: Cytotoxicity against Homo sapiens (human) NCI-H460 cells assessed as cellular growth after 48 hr by Alamar blue assay. Set-up: concentration or dose not given beside the values.
Assay [6] can be described thus: Cytotoxicity against Homo sapiens (human) prostate cancer cells after 48 hr by SRB assay. The note with it: Cancer cell lines.
Assay [7] in a line: Cytotoxicity against Homo sapiens (human) colon cancer cells after 48 hr by SRB assay. The settings on record: Cancer cell lines.
Assay [8] is described as follows: Cytotoxicity against Homo sapiens (human) renal cancer cells after 48 hr by SRB assay. The note with it: Cancer cell lines.
A further assay concerns SR. Kind of assay: Cytotoxicity against Homo sapiens (human) SR cells after 48 hr by SRB assay.
Assay [9] is described as follows: Cytotoxicity against Homo sapiens (human) melanoma cellsafter 48 hr by SRB assay. The note with it: Melanoma cell.

The term GI50 denotes the concentration that inhibits growth by half. Broadly, the TGI is the concentration at which net growth stops. Take `Cc1nn(-c2ccc(Br)cc2)c(C)c1CC(=O)c1cc(O)ccc1O`: the concentration for 50% growth inhibition (GI50) in assay [1] was determined as 11.3 µM; in [2], 12 µM; in assay [3], 11.4 µM; in assay [4], 7.71 µM; in [5], 14.1 µM; in [6], 12.4 µM. Also, the concentration for 50% growth inhibition (GI50) in [7] stood at 11.2 µM; in assay [8], 12 µM; in the assay with SR it was 0.91 µM; in assay [9] it was 13.1 µM. The TGI in [1] worked out at 29.8 µM; in assay [2], 32.9 µM; in assay [3] it was 36.3 µM; in assay [4], 46.6 µM; in assay [5] it was 42.4 µM; in assay [6], 47.3 µM. Further, the results for the TGI in assay [7], in assay [8] and in assay [9] were 42.1 µM, 36.7 µM and 31.4 µM, respectively. This compound also gave an LC50 (concentration giving 50% net cell kill) in assay [3] of 48.8 µM. The Activity in the assay with SF-268, with MCF7 and in the assay with NCI-H460 was less than 32% in each case.
`COc1ccc(OC)c(-c2cc(-c3ccc(Cl)cc3)nn2-c2ccccc2)c1`: the GI50 turned out to be 29.2 µM in assay [1]; 40.6 µM in [2]; 17.7 µM in assay [3]; 11.1 µM in [4]; 49 µM in assay [5]; 60.5 µM in assay [6]. In addition, the GI50 in assay [7] is 25.2 µM; in assay [8] it was 34.9 µM; in assay [9] it was 34.9 µM. The concentration for total growth inhibition (TGI) is 84.3 µM in assay [1]; 100 µM in assay [2]; 78.6 µM in assay [3]; 78.2 µM in assay [4]; 85.2 µM in assay [5]; 100 µM in [6]. Also, the TGI was 82.8 µM in [7], 77.4 µM in assay [8] and 70 µM in [9]. The compound further registered an LC50 (concentration giving 50% net cell kill) in assay [3] of 99.8 µM. Besides, the Activity in the assay on SF-268, in the assay on MCF7 and with NCI-H460 was less than 32% in each case.
`COc1ccc(OC)c(-c2cc(-c3ccccc3)nn2-c2ccc(S(N)(=O)=O)cc2)c1`: the GI50 in [1] came to 15 µM; in [2], 31.4 µM; in assay [3], 12.3 µM; in assay [4], 6.94 µM; in assay [5], 13.6 µM; in [6], 13.9 µM. In addition, the GI50 in assay [7] amounted to 11.9 µM; in assay [8], 13 µM; in assay [9], 15.3 µM. The TGI in assay [1] came out at 31.1 µM; in assay [2], 40.7 µM; in [3], 32.9 µM; in assay [4], 68.5 µM; in assay [5], 43.7 µM; in [6], 28.8 µM. For the same compound, the values for the TGI in [7], in assay [8] and in [9] were 27.5 µM, 29.8 µM and 40.8 µM, respectively. In assay [3], this compound yielded an LC50 (concentration giving 50% net cell kill) of 73 µM. The Activity with SF-268, with MCF7 and with NCI-H460 was less than 32% each time.
Consider `COc1ccc(OC)c(-c2cc(-c3ccc(Cl)cc3)nn2-c2ccc(S(N)(=O)=O)cc2)c1`, for which the GI50 is 16.2 µM in assay [1]; 10.9 µM in assay [2]; 11.5 µM in assay [3]; 4.44 µM in assay [4]; 16.9 µM in [5]; 7.86 µM in assay [6]. In addition, the values for the GI50 in assay [7], in assay [8] and in assay [9] were 0.95 µM, 13.5 µM and 12.8 µM, respectively. Moreover, the TGI in assay [1] was determined as 37.2 µM; in assay [2], 44.3 µM; in [3] it was 34 µM; in [4], 52.1 µM; in assay [5] it was 50.8 µM; in [6], 20.8 µM. The results for the TGI in [7], in assay [8] and in [9] were 38.4 µM, 39.5 µM and 36.7 µM, respectively. In assay [3], the LC50 (concentration giving 50% net cell kill) was 74.7 µM. The Activity in the assay with SF-268, in the assay on MCF7 and with NCI-H460 was less than 32% throughout.
`COc1ccc(OC)c(-c2cc(-c3ccccc3)nn2-c2ccc(S(=O)(=O)NC(C)=O)cc2)c1`: the GI50 is 18.1 µM in [1]; 15.3 µM in assay [2]; 9.7 µM in [3]; 7.4 µM in assay [4]; 13.3 µM in assay [5]; 12 µM in assay [6]. The GI50 in assay [7] came out at 3.74 µM; in assay [8], 13.3 µM; in assay [9], 15.4 µM. In addition, the TGI in assay [1] came to 42.6 µM; in assay [2], 49.8 µM; in assay [3], 44.5 µM; in assay [4] it was 53.4 µM; in [5] it was 50.7 µM; in [6] it was 28.8 µM. Besides, the total growth inhibition concentration (TGI) in assay [7] worked out at 18.2 µM; in assay [8] it was 37.6 µM; in assay [9], 36.2 µM. The compound further had an LC50 (concentration giving 50% net cell kill) in [3] of 77.1 µM. Besides, the Activity with SF-268, in the assay on MCF7 and in the assay on NCI-H460 was less than 32% each time.
Consider `COc1ccc(OC)c(-c2cc(-c3ccc(Cl)cc3)nn2-c2ccc(S(=O)(=O)NC(C)=O)cc2)c1`, for which the concentration for 50% growth inhibition (GI50) in assay [1] stood at 19.4 µM; in assay [2], 17.7 µM; in assay [3], 25.4 µM; in [4], 7.45 µM; in assay [5] it was 23.4 µM; in [6], 3.61 µM. In addition, the values for the 50% growth inhibitory concentration (GI50) in [7], in assay [8] and in [9] were 8.18 µM, 17.7 µM and 10.7 µM, respectively. The TGI in assay [1] is 50 µM; in assay [2] it was 52.6 µM; in assay [3], 70.2 µM; in [4], 50.1 µM; in [5], 67.1 µM; in assay [6], 21.9 µM. In addition, the TGI was determined as 36 µM in [7], 53.2 µM in assay [8] and 28.7 µM in [9]. In assay [3], the LC50 (concentration giving 50% net cell kill) was 79.2 µM. The Activity in the assay on SF-268, in the assay on MCF7 and in the assay on NCI-H460 was less than 32% throughout.
Turning to `Oc1ccc(O)c(-c2cc(-c3ccccc3)nn2-c2ccccc2)c1`, the GI50 came out at 18.6 µM in [1]; 26.9 µM in assay [2]; 17.1 µM in [3]; 35.7 µM in assay [4]; 37.6 µM in [5]; 16.7 µM in assay [6]. For the same compound, the GI50 in [7] turned out to be 28.5 µM; in assay [8], 22.6 µM; in [9], 22.6 µM. For the same compound, the TGI in assay [1] is 71.2 µM; in assay [2], 63.6 µM; in assay [3] it was 75.7 µM; in assay [4] it was 100 µM; in [5] it was 75.2 µM; in [6], 100 µM. Also, the TGI in [7] is 77.4 µM; in assay [8], 67.3 µM; in [9], 63.9 µM. Also, the LC50 (concentration giving 50% net cell kill) in assay [3] came to 91.3 µM. The Activity in the assay with SF-268, in the assay with MCF7 and in the assay with NCI-H460 was less than 32% throughout.
Regarding `Oc1ccc(O)c(-c2cc(-c3ccc(Cl)cc3)nn2-c2ccccc2)c1`, the GI50 in assay [1] worked out at 17.9 µM; in [2], 6.85 µM; in assay [3], 9.25 µM; in [4], 3.43 µM; in [5] it was 8.01 µM; in [6], 14.6 µM. Besides, the GI50 in assay [7] was 5.75 µM; in [8], 8.86 µM; in assay [9], 8.79 µM. Further, the TGI was 34.6 µM in [1]; 33.2 µM in [2]; 41.1 µM in assay [3]; 49.7 µM in assay [4]; 60.4 µM in assay [5]; 30.7 µM in [6]. The results for the TGI in [7], in assay [8] and in assay [9] were 16.8 µM, 32 µM and 32.5 µM, respectively. Besides, in assay [3], the LC50 (concentration giving 50% net cell kill) is 76.1 µM. The Activity with SF-268, in the assay on MCF7 and in the assay on NCI-H460 was less than 32% each time.
